Results on 1 compound are retold here after ChEMBL document CHEMBL5143698, “Phenotypic screen identifies FOXO inhibitor to counteract maturation and promote expansion of human iPS cell-derived cardiomyocytes” (Bioorg Med Chem, 2022).

One may read the pIC50 as −log10 of the IC50, conventionally taken in molar units.

pIC50: −log10 of the molar value. The source made the active and inactive calls. The calls are words filed in the database; no cut-off is given here.

Data set [1] can be described thus: Antiproliferative activity against human iPSC derived cardiomyocytes assessed as fold increase in cell number at 100 nM incubated for 4 days without passaging by Hoechst staining based analysis. It counts as functional, iPSC-CM. The note with it: time 4 day.
Data set [2] can be described thus: Cytotoxicity against human iPSC derived cardiomyocytes at >=500 nM incubated for 4 days without passaging by Hoechst staining based analysis. Format: toxicity, cell-based. The note with it: ipsc-cm, 96 h, 0.5 µM, time 4 day.
In another data set the target is Forkhead box protein O1 (Homo sapiens, UniProt Q12778). Nature of the data set: Inhibition of FOXO-1 in human HepG2 cells incubated for 20 hrs by Renilla luciferase reporter gene assay. It counts as cell-based.
Forkhead box protein O1, sequence (Q12778 whole entry): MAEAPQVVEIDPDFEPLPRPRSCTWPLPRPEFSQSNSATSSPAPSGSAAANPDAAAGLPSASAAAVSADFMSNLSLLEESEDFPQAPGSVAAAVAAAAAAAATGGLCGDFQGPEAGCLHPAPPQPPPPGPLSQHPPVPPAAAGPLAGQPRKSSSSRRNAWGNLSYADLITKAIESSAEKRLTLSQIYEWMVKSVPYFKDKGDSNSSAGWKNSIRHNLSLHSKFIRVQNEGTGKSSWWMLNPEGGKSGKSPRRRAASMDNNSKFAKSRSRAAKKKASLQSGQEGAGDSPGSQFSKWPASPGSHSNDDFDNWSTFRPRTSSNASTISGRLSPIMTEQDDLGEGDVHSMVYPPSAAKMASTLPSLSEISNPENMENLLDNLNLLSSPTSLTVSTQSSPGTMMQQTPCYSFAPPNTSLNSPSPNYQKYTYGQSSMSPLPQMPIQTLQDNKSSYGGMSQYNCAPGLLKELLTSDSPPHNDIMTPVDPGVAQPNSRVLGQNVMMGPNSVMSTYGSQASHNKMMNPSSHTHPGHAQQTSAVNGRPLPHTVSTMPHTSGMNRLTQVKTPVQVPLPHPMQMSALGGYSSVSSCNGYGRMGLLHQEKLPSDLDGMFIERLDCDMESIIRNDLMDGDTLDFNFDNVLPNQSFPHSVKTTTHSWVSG
Data set [3] is described as follows: (§1) Antiproliferative activity against human iPSC derived cardiomyocytes assessed as increase in cell number by measuring fold change after 3 passages at 100 nM incubated for 2 days by Hoechst staining based analysis. Format: functional, iPSC-CM. The note with it: time 2 day.
The subject of data set [4] is iPSC-CM. The description is as §1. The settings on record: time 2.0 day. It counts as functional.
For data set [5], the system named is iPSC-CM. Nature of the data set: Upregulation of MYH6 gene expression in human iPSC derived cardiomyocytes at 100 nM incubated for 5 days by qRT-PCR analysis. It counts as functional, cell-based. The note with it: time 5.0 day. A general note: Quantitative PCR measures a nucleic acid by following its amplification.
For data set [6], the system named is iPSC-CM. Kind of data set: Upregulation of TBX2 gene expression in human iPSC derived cardiomyocytes at 100 nM incubated for 5 days by qRT-PCR analysis. Format: functional, cell-based. The note with it: time 5.0 day.
The test system of data set [7] is iPSC-CM. Nature of the data set: Upregulation of IRX4 gene expression in human iPSC derived cardiomyocytes aat 100 nM incubated for 5 days by qRT-PCR analysis. Format: functional, cell-based. The note with it: time 5.0 day.
Data set [8] concerns iPSC-CM. Kind of data set: Downregulation of MYH7 gene expression in human iPSC derived cardiomyocytes measured after two passages following incubation for 5 days by qRT PCR analysis. Format: functional, cell-based. The note with it: dose 3-100 nM, time 5.0 day, DDE = dose-dependent effect.
The subject of data set [9] is iPSC-CM. Kind of data set: Downregulation of MYL2 gene expression in human iPSC derived cardiomyocytes measured after two passages following incubation for 5 days by qRT PCR analysis. Format: functional, cell-based. The settings on record: dose 3-100 nM, time 5.0 day, DDE = dose-dependent effect.
The test system of data set [10] is iPSC-CM. Kind of data set: Downregulation of NPPA gene expression in human iPSC derived cardiomyocytes measured after two passages following incubation for 5 days by qRT PCR analysis. It counts as functional, cell-based. The settings on record: dose 3-100 nM, time 5.0 day, DDE = dose-dependent effect.
For data set [11], the system named is iPSC-CM. Kind of data set: Downregulation of MLC2v protein level in human iPSC derived cardiomyocytes at 100 nM incubated for 3 weeks by immunofluorescence assay. Format: functional, cell-based.
The test system of data set [12] is iPSC-CM. Kind of data set: Downregulation of ANP protein level in human iPSC derived cardiomyocytes at 100 nM incubated for 3 weeks by immunofluorescence assay. Format: functional, cell-based.
The subject of data set [13] is iPSC-CM. Nature of the data set: Downregulation of MYH7 gene expression in human iPSC derived cardiomyocytes at 100 nM incubated for 5 days by qRT-PCR analysis. Format: functional, cell-based. The note with it: time 5.0 day.
Data set [14] has as its system iPSC-CM. Kind of data set: Downregulation of MYL2 gene expression in human iPSC derived cardiomyocytes at 100 nM incubated for 5 days by qRT-PCR analysis. Format: functional, cell-based. The note with it: time 5.0 day.
Data set [15] deals with iPSC-CM. Nature of the data set: Downregulation of NPPA gene expression in human iPSC derived cardiomyocytes at 100 nM incubated for 5 days by qRT-PCR analysis. Format: functional, cell-based. The settings on record: time 5.0 day.

As to `CCn1cc(C(=O)O)c(=O)c2c(N)c(F)c(NC3CCCCC3)cc21`, the results for the “fold change (FC)” value in [1] and in data set [3] were greater than 3 and greater than 30, respectively. Also, the Activity entry is “Toxic” in [2], “Dde” in the data set with iPSC-CM [8], “Dde” in the data set on iPSC-CM [9] and “Dde” in the data set with iPSC-CM [10]. At Forkhead box protein O1, the pIC50 is 7.48. The outcome in the data set with iPSC-CM [4], in the data set with iPSC-CM [5], with iPSC-CM [6], with iPSC-CM [7], with iPSC-CM [11] and in the data set on iPSC-CM [12] was Active. Further, the outcome with iPSC-CM [13], in the data set with iPSC-CM [14] and with iPSC-CM [15] was Active.
